Earlier results, collected in EP0005248A2, “Tetrapeptidehydrazide derivatives and process for their preparation” (Takeda Chemical Industries, Ltd., priority 1978, dated 1979).

Details: for analgesic action: intravenous administration

Substance	analgesic action	morphinomimetic action (directly administered by the intracerebral route)
β-Endorphin (YGGFMTSEKSQTPLVTLFKNAIIKNAYKKGE; Beta-endorphin; UniProt P01189 237-267, looked up)	profound analgesic effects	
H=ryr -Gly-Gly-Phe-Met-OH	do not have an analgesic action	display a morphinemimetic action
